Laboratory results taken from US20060166934A1, “Composition comprising phytosphingosine derivatives for apoptosis induction” (Tae-Yoon Kim, priority 2002, published 2006).

Key:
[1] = tested on: Th1 cells activation; assay: Mixed leukocyte reaction (MLR), Th1 cells activation by TNBSO3, MTT assay; format: cell-based, mice; conditions: MLR with TNBSO3-conjugated stimulator cells, FIG. 4
Protocol: Whether the composition of the present invention has a suppressive effect on the Th1 cells activation which isolate […], IL-12, etc. by reacting with TNBSO3 […] was examined.
The mononuclear cells obtained from spleen of mice as described the above 4 were used for responder cells, and TNBSO3-conjugated cells were used for stimulator cells. The stimulator cells were obtained as follows:
The mononuclear cells were adjusted to be 2×10^7 cells/ml in PBS and the same volume of 20 mM TNBSO3 was added and incubated at 37° C. for 10 min in the dark state. After incubation, the cells wrer washed three times with PBS.
(§1) Each 2×10^5 responder cells and stimulator cells were mixed with each other and cultured for 5 days on the 96-well plate. And RPMI with 10% of serum was used as a medium.
(§2) The above cells were cultured for 24 hours in the presence of 1, 10, 50 and 100 μM of NAPS, TAPS, and PS to examine the proliferation of the cells.
(§3) C2-ceramide was used as control.

[2] = MTT assay, cytotoxicity in HUVEC; format: cell-based, human; conditions: human
Procedure, shortened: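 Primary HUVEC cultured from human umbilical vein; cells in serum-free medium were exposed to phytosphingosine derivatives at final 1–100 μM for 24 h. Viability by MTT (2 mg/ml, 4 h), formazan dissolved in DMSO and read at O.D. 540 nm; C2-ceramide run for comparison.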

[3] = MTT assay, cytotoxicity in immune cells separated from spleen of mice; format: cell-based; conditions: BDF, mouse
Protocol: (§4) The effect of the composition of the present invention on the cytotoxicity in immune cells (T cells, B cells, macrophages, monocytes, etc.) was examined. The spleen was removed from normal mice (BDF) and single cells were obtained from the spleen by mechanical aggregation method. And mononuclear cells containing T cells, B cells, macrophages and monocytes were isolated from single cells by density gradient centrifugation method using Ficoll Hypaque. Briefly, single cells were treated with PBS and overlayed on Ficoll Hypaque and centrifuged at 1500 rpm for 30 min. After centrifugation, the cells around the boundary of the Ficoll-Hapaque were collected and washed three times with PBS. The isolated cells were cultured for 24 hours in the presence of 1, 10, 50 and 100 μM of NAPS, TAPS, and PS to examine the effect of cytotoxicity, i.e. the degree of proliferation of the cells. C2-ceramide was used as control. The medium used in this experiment was RPMI 1640 suplemented with 10% of FBS and 100 μg/ml of penicillin and streptomycin.

[4] = tested on: Th1 cells activation against allogenic cells (PBMC); assay: Reactions among allogenic cells, Th1 cells activation, MTT assay; format: cell-based, human; conditions: FIG. 5
From the text: Whether the composition of the present invention has a suppressive effect on the Th1 cells activation by allogenic cells in immune reation was examined.
PBMC obtained from different volunteers as described in the above 5 were used for responder cells and stimulator cells respectively. PBMC for stimulator cells were used after X-ray irradiation (3000 rad) to inhibit the proliferation of stimulator cells.
as §1, §2, §3

[5] = tested on: HaCaT cells; assay: Mitosis by immunofluorescence (β-tubulin, DAPI); format: cell-based, human; conditions: 30 μM, 24 hours versus 12 hours, FIG. 9
Protocol: Next, the cell cycle is observed according to the immunofluorescence method. In order to look into from which step among G2/M phase the induction of apoptosis by TAPS is induced, mitosis is observed by using β-tubulin. HaCaT cells are cultured on a dish with a cover slip and treated with TAPS (30 μM). The cells are washed with PBS at each time interval, fixed with 5% paraformaldehyde for 15 minutes, and reacted with β-tubulin antibody (1:100) for 1 hour. They were washed with PBS and reacted with Cy3-conjugated anti-mouse IgG secondarily. For DNA staining, 0.3 μg/ml of DAPI (Sigma) is added to the cells, which are observed by using a fluorescent microscope.

[6] = tested on: p53; assay: Immunoblot analysis of p53; format: cell-based, human; conditions: 30 μM, FIG. 12
Protocol: In the confirmation of apoptosis-related proteins, the immunoblot analysis is performed in order to look into the effects of the compositions of the present invention on the expression of caspase-3, p53, and Chk1 proteins related to the induction of apoptosis. HaCaT cells are cultured on a 100-mm dish and collected at the indicative time. The proteins are extracted by adding 500 μl of RIPA lysis buffer (1% Nonidet P-40, 1% sodium deoxycholate, 0.1% SDS, […], 0.01 M sodium phosphate, pH 7.2, 2 mM EDTA, 50 mM sodium fluoride and 0.2 mM sodium vanadate), and the concentration is measured by using the Bradford method. 1 Extracted proteins is electrophoresed on 12% polyacrylamide gel, and they are transferred to the nitrocellulose membrane. The membrane blocked with 5% non-fat milk is reacted with the primary antibodies (caspase-3, p53, and Chk1), washed, and reacted with the secondary HRP-conjugated antibody. The intensity of proteins is analyzed by using the ECL kit.

[7] = tested on: immune cells (T cells, B cells, macrophages, monocytes) from spleen of mice; assay: MTT assay, cytotoxicity in immune cells separated from spleen of mice; format: cell-based; conditions: mouse spleen immune cells, 24 hours, FIG. 2; read-out: IC50 (cytotoxicity)
Protocol: as §4

[8] = tested on: HaCaT cells; assay: Cell cycle by flow cytometric analysis; format: cell-based, human; conditions: FIG. 8
Protocol: The effects of the compositions of the present invention on the cell cycle are reviewed. In the flow cytometric analysis, the cells are treated with trypsin according to each time interval, collected and washed with PBS. They are fixed by using 80% ethanol, and propidium iodide and RNase are added to them. Thereafter, the cell cycle is analyzed by using a flow cytometer.

Row | Molecule | concentration showing a suppressive effect on Th1 cells activation [1] | viability at 24 h, 3.5 µM [2] | viability at 24 h, 7 µM [2] | viability at 24 h, 15 µM [2] | viability at 24 h, 30 µM [2] | IC50 at 24 h [3] | concentration showing a suppressive effect on Th1 cells activation against allogenic cells [4] | cells with chromosomes condensed [5] | p53 protein ([6]; at 8-hour) | p53 protein ([6]; at 24 hour) | IC50 [7] | G2/M phase ([8]; thereafter up to 24 hours) | sub G1 phase (apoptotic cells) ([8]; thereafter up to 24 hours) | G2/M phase ([8]; up to 12 hours after treating) | S phase ([8]; up to 12 hours after treating) | suppressive effect on Th1 cells activation against allogenic cells ([4]; 50 μM)
1 | CCCCCCCCCCCCCC[C@@H](O)[C@@H](O)[C@H](CO)NC(C)=O [NAPS, N-acetyl phytosphingosine] | 50 µM | 66 ± 7.5% | 51 ± 10.5% | 19 ± 3.4% | 14 ± 0.6% | ~75 µM | 50 μM |  |  |  |  |  |  |  |  | 
2 | tetraacetyl phytosphingosine [TAPS] | 10 µM |  |  |  |  |  | 50 μM | more cells with chromosomes condensed are observed 24 hours after treating with TAPS than 12 hours after | not changed greatly | rapid reduction | 100 µM | reduced continuously | increased relatively | increased relatively | reduced | suppress completely
